The values that follow come from BindingDB's records for doi:10.1021/jm00032a003 (Merck Research Laboratories, 1994).

The test in a line: The compound was tested for binding activity against Cholecystokinin type B receptor from rat […] tissue using [125]BH CCK-8 as radioligand.

Take `CN1C(=O)[C@H](NC(=O)Nc2ccc(C(=O)O)cc2)N=C(c2ccccc2)c2ccccc21`: the IC50 was determined as 6.7 nM. `CC(C)CN1C(=O)[C@H](NC(=O)Nc2ccc(-c3nnn[nH]3)cc2)N=C(c2ccccc2)c2ccccc21` [1-((R)-1-Isobutyl-2-oxo-5-phenyl-2,3-dihydro-1H-benzo[e][1,4]diazepin-3-yl)-3-[4-(1H-tetrazol-5-yl)-phenyl]-urea] showed an IC50 of 23.8 nM. Next, `CN1C(=O)[C@H](NC(=O)Nc2ccc(-c3nnn[nH]3)cc2)N=C(c2ccccc2)c2ccccc21` [1-((R)-1-Methyl-2-oxo-5-phenyl-2,3-dihydro-1H-benzo[e][1,4]diazepin-3-yl)-3-[4-(1H-tetrazol-5-yl)-phenyl]-urea]: 250 nM; `CN1C(=O)[C@H](NC(=O)Nc2ccc(-c3nc(=O)o[nH]3)cc2)N=C(c2ccccc2)c2ccccc21` [1-((R)-1-Methyl-2-oxo-5-phenyl-2,3-dihydro-1H-benzo[e][1,4]diazepin-3-yl)-3-[4-(5-oxo-4,5-dihydro-[1,2,4]oxadiazol-3-yl)-phenyl]-urea]: 56.4 nM; `CC(C)CN1C(=O)[C@@H](NC(=O)Nc2ccc(-c3nnn[nH]3)cc2)N=C(c2ccccc2)c2ccccc21` [1-((S)-1-Isobutyl-2-oxo-5-phenyl-2,3-dihydro-1H-benzo[e][1,4]diazepin-3-yl)-3-[4-(1H-tetrazol-5-yl)-phenyl]-urea]: 0.142 nM. To `CN1C(=O)[C@@H](NC(=O)Nc2ccc(-c3nnn[nH]3)cc2)N=C(c2ccccc2)c2ccccc21` [1-((S)-1-Methyl-2-oxo-5-phenyl-2,3-dihydro-1H-benzo[e][1,4]diazepin-3-yl)-3-[4-(1H-tetrazol-5-yl)-phenyl]-urea] belongs 1.02 nM; to `CN1C(=O)[C@@H](NC(=O)Nc2ccc(-c3nc(=O)o[nH]3)cc2)N=C(c2ccccc2)c2ccccc21` [1-((S)-1-Methyl-2-oxo-5-phenyl-2,3-dihydro-1H-benzo[e][1,4]diazepin-3-yl)-3-[4-(5-oxo-4,5-dihydro-[1,2,4]oxadiazol-3-yl)-phenyl]-urea], 0.266 nM.
